The supplement of paper PMC10307832

Tests used:
Assay in all cases: relative viability (nuclei count vs DMSO), 5 days (fraction); higher = more cells survive
[1] = compound: CN(C)C(=N)NC(=N)N [Metformin] + C[C@@H](Oc1cc(-c2cnn(C3CCNCC3)c2)cnc1N)c1c(Cl)ccc(F)c1Cl [Crizotinib] (partner 1 µM)
Procedure, shortened: (§1)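 Relative viability divides the nuclei count in treated wells by that in vehicle wells. Lung cancer cell lines were seeded in 1536-well plates, dosed by pin tool the next day, and fixed and stained after 5 days in one step with final 0.05% Triton X-100, 1% formaldehyde and 1 ug/ml Hoechst. Dosing was a single drug or a fixed anchor-drug dose plus five library-drug doses (not always all listed) in √10 steps, and values are medians of duplicate plates imaged at 4×.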

[2] = compound: CN(C)C(=N)NC(=N)N [Metformin] + Nc1ncn([C@H]2C[C@H](O)[C@@H](CO)O2)c(=O)n1 [Decitabine] (partner 2 µM)
Procedure, shortened: as §1

[3] = compound: N#CC1(c2ccc(NC(=O)c3cccnc3NCc3ccncc3)cc2)CCCC1 [Apatinib] + Cc1cc(Nc2cc(N3CCN(C)CC3)nc(Sc3ccc(NC(=O)C4CC4)cc3)n2)n[nH]1 [Tozasertib] (partner 0.1 µM)
Procedure, shortened: as §1

[4] = compound: N#CC1(c2ccc(NC(=O)c3cccnc3NCc3ccncc3)cc2)CCCC1 [Apatinib] + O=C(CCCCCCC(=O)Nc1ccccc1)NO [Vorinostat] (partner 1 µM)
Procedure, shortened: as §1

Cell Line	relative viability ([1]; first compound 10 µM)	relative viability ([1]; first compound 31.62 µM)	relative viability ([1]; first compound 100 µM)	relative viability ([1]; first compound 316.23 µM)	relative viability ([1]; first compound 1000 µM)	relative viability ([2]; first compound 31.62 µM)	relative viability ([2]; first compound 100 µM)	relative viability ([2]; first compound 316.23 µM)	relative viability ([2]; first compound 1000 µM)	relative viability ([3]; first compound 0.08 µM)	relative viability ([3]; first compound 0.253 µM)	relative viability ([3]; first compound 0.8 µM)	relative viability ([3]; first compound 2.53 µM)	relative viability ([3]; first compound 8 µM)	relative viability ([4]; first compound 0.08 µM)	relative viability ([4]; first compound 0.253 µM)	relative viability ([4]; first compound 0.8 µM)	relative viability ([4]; first compound 2.53 µM)	relative viability ([4]; first compound 8 µM)	relative viability ([2]; first compound 10 µM)
HCC-44	0.824	0.788	0.785	0.749	0.776	0.934	0.927	0.959	0.966	1.23	1.12	0.75	0.844	0.494	1.07	1.07	1.08	1.01	0.934	–
HOP-62	0.917	0.995	1.11	0.765	0.917	0.144	0.18	0.208	0.186	0.442	0.403	0.329	0.257	0.192	0.613	0.679	0.567	0.476	0.323	0.193
NCI-H358	0.551	0.448	0.587	0.311	0.507	0.225	0.214	0.253	0.213	0.113	0.103	0.0953	0.108	0.0888	0.762	0.866	0.616	0.618	0.578	0.202
NCI-H596	1.05	1.17	1.09	1.11	1.17	1.12	1.06	1.01	1.11	1.05	0.965	0.854	0.705	0.631	0.703	0.58	0.672	0.492	0.546	1.17
ABC-1	–	1.3	0.869	0.447	0.29	1.12	1.2	1.54	0.548	–	0.177	0.165	0.178	0.191	–	1.2	1.07	1.04	1.22	–
SW 900	–	–	–	–	–	0.389	–	0.412	0.492	0.504	0.54	0.442	0.323	0.2	0.577	0.586	0.482	0.355	0.454	0.41
NCI-H1734	0.743	0.83	0.654	0.669	0.74	0.425	0.435	0.442	0.499	0.246	0.283	0.219	0.231	0.231	0.935	0.947	0.773	0.727	0.728	0.502
HARA	1.13	1.09	1.15	1.01	1.08	0.498	0.581	0.621	0.68	0.119	0.129	0.121	0.0894	0.0993	0.599	0.556	0.523	–	0.51	0.722
NCI-H1703	0.989	0.934	0.66	0.679	0.886	–	–	–	–	–	–	–	–	–	–	–	–	–	–	–
A549	0.782	0.531	0.653	0.723	0.777	0.291	0.179	0.198	0.209	–	–	–	–	–	–	–	–	–	–	0.182
NCI-H1915	–	0.985	0.918	0.889	0.96	0.263	0.255	0.245	0.269	0.422	0.445	0.43	0.35	0.267	0.578	0.519	0.495	0.37	0.314	–
NCI-H1355	1.01	1.06	1.03	0.986	1.11	0.285	0.332	0.355	0.372	0.576	0.611	0.474	0.33	0.217	0.677	0.703	0.616	0.515	0.569	0.402
NCI-H1650	0.961	0.855	1.04	0.877	0.82	0.343	0.317	0.402	0.389	–	0.334	0.329	0.257	0.26	0.564	0.559	0.513	0.412	0.489	0.326
HCC-78	0.422	0.487	0.498	0.491	0.529	0.605	0.768	0.779	0.658	0.477	0.333	0.535	0.289	0.317	0.524	0.396	0.427	0.402	0.374	–
NCI-H1666	1.26	1.03	1.15	1.09	1.2	0.713	0.649	0.619	0.823	0.595	0.583	0.501	0.615	0.526	1.03	1.03	1.05	0.976	0.915	0.66
HCC-15	0.818	0.81	0.889	0.8	0.833	0.636	0.703	0.662	0.703	0.376	0.48	0.357	0.248	0.163	0.9	0.876	0.871	0.887	0.706	0.548
EKVX	0.657	0.896	0.958	0.716	0.895	0.302	0.369	0.325	0.322	0.369	0.404	0.395	0.224	0.135	0.816	0.752	0.713	0.589	0.57	–
NCI-H3122	0.225	0.213	0.241	0.255	0.224	0.371	0.361	0.359	0.369	0.551	0.368	0.432	0.374	0.367	0.995	0.968	1.07	0.734	0.895	0.343
NCI-H1651	0.933	0.957	0.939	0.964	0.97	0.687	0.572	0.476	0.755	0.753	0.756	0.717	0.34	0.362	0.583	0.522	0.528	0.48	0.577	0.485
COR-L23	0.564	0.461	0.483	0.574	0.639	0.514	0.365	0.388	0.435	0.263	0.165	0.149	0.143	0.129	0.516	0.461	0.333	0.415	0.427	0.456
A-427	0.802	1.17	0.84	0.926	0.896	0.587	0.571	0.521	0.574	0.178	0.241	0.175	0.188	0.147	0.861	0.852	0.855	0.866	0.853	0.524

Cell Line	relative viability ([1]; first compound 10 µM)	relative viability ([1]; first compound 31.62 µM)	relative viability ([1]; first compound 100 µM)	relative viability ([1]; first compound 316.23 µM)	relative viability ([1]; first compound 1000 µM)	relative viability ([2]; first compound 31.62 µM)	relative viability ([2]; first compound 100 µM)	relative viability ([2]; first compound 316.23 µM)	relative viability ([2]; first compound 1000 µM)	relative viability ([3]; first compound 0.08 µM)	relative viability ([3]; first compound 0.253 µM)	relative viability ([3]; first compound 0.8 µM)	relative viability ([3]; first compound 2.53 µM)	relative viability ([3]; first compound 8 µM)	relative viability ([4]; first compound 0.08 µM)	relative viability ([4]; first compound 0.253 µM)	relative viability ([4]; first compound 0.8 µM)	relative viability ([4]; first compound 2.53 µM)	relative viability ([4]; first compound 8 µM)	relative viability ([2]; first compound 10 µM)
NCI-H2342	–	–	–	–	–	0.812	0.708	0.714	0.693	0.527	0.492	0.53	0.455	0.373	0.625	0.655	0.763	0.685	0.72	–
201T	–	1.04	1.07	0.965	1	0.824	0.805	0.799	0.776	0.96	0.878	0.897	0.808	0.615	0.724	0.918	0.898	0.969	0.966	–
NCI-H522	–	–	–	–	–	0.599	0.679	0.648	0.7	0.48	0.487	0.693	0.504	0.567	1.02	1.02	0.875	0.672	0.816	0.659
NCI-H2023	–	0.767	0.706	–	0.512	0.223	0.203	0.207	0.186	0.43	0.307	0.195	0.162	0.135	0.774	0.673	0.811	0.58	0.483	0.224
NCI-H2085	0.952	0.694	0.947	0.721	0.879	0.453	0.484	0.531	0.524	0.844	0.767	0.726	0.379	0.406	0.77	0.777	0.711	0.73	0.742	0.498
LXF-289	0.764	0.759	0.812	0.776	0.794	0.367	0.345	0.312	0.378	0.211	0.247	0.171	0.175	0.132	0.813	0.746	0.765	0.637	0.671	0.312
NCI-H1975	1.09	1.12	1.21	1.06	1.27	0.402	0.65	0.323	0.394	0.864	0.691	0.253	0.157	0.157	0.761	0.696	0.641	0.634	0.557	0.334
LU99A	0.47	0.52	0.443	0.503	0.481	0.765	0.723	0.735	0.849	0.325	0.317	0.276	0.231	0.203	0.514	0.589	0.467	0.43	0.354	0.798
Calu-6	0.637	0.755	0.71	0.691	0.714	–	–	–	–	–	–	–	–	–	–	–	–	–	–	–
NCI-H2228	0.48	0.515	–	0.385	0.581	–	–	–	–	0.268	0.221	0.225	0.164	0.0952	0.535	0.703	0.538	0.55	0.639	–
IA-LM	0.76	0.944	–	0.926	0.973	–	–	–	–	–	–	–	–	–	0.975	0.968	0.958	0.765	0.92	–
NCI-H1395	–	–	–	–	–	0.758	0.719	0.713	0.382	0.734	0.832	0.722	0.661	0.52	0.772	0.815	0.64	0.535	0.605	0.661
EBC-1	0.205	0.154	0.205	0.173	0.222	–	–	–	–	–	–	–	–	–	–	–	–	–	–	–
NCI-H1563	0.855	0.889	0.865	0.793	0.827	–	–	–	–	–	–	–	–	–	–	–	–	–	–	–
NCI-H1623	–	–	–	–	–	–	–	–	–	0.45	0.454	0.451	0.417	0.407	–	–	–	–	–	–
NCI-H1648	–	–	–	–	–	0.512	0.555	0.535	0.656	0.484	0.346	0.563	0.366	0.197	0.682	0.503	0.403	0.54	0.276	–
NCI-H1793	–	–	–	–	–	0.439	0.458	0.449	0.621	0.38	0.369	0.245	0.209	0.226	0.948	0.779	0.773	0.522	0.628	0.503
NCI-H1792	–	0.956	1.13	0.971	0.98	0.428	0.482	0.386	0.496	–	–	–	–	–	–	–	–	–	–	0.449
NCI-H1299	0.98	0.962	0.975	0.972	1.04	–	–	–	–	–	–	–	–	–	–	–	–	–	–	–
CAL-12T	–	0.64	0.552	0.611	0.521	–	–	–	–	0.298	0.34	0.241	0.198	0.191	0.941	1.02	0.741	0.794	0.765	–
